Laboratory results as given in patent US20100112048A1, “Dosage Regimen and Medicament For Reducing Risk of Onset or Progression of Dementia by Administration of Specific Vitamins and Nsaid” (priority 2006, published 2010).

Key:
mortality of the elderly = details: placebo-controlled trial in the elderly; cited from earlier work
[1] = test system: mortality of elderly Cache County participants; details: in vivo
Method: Also, to examine the effect of these constituents on differential mortality, logistic regression was used to estimate the relative risk of mortality over the course of follow-up among the 5 user groups. These analyses, were controlled for age, sex, education, and APOE genotype status. All analyses were performed using SAS statistical software package version 8.0.
Also, an analysis was effected to assess whether there was an increased risk of mortality among any of the user groups that might potentially bias the observed associations with cognitive performance over time.

[2] = test system: mortality of 39,876 healthy participants; details: cited from earlier work

Substance: vitamin E
- mortality associated with using vitamin E (in words) (mortality of the elderly): did not note any increased mortality
- harm of vitamin E, subgroup analysis (in words) [1]: may only be harmful among elderly with prior cardiovascular disease
- cardiovascular mortality (in words) ([2]; healthy women): trend toward decreased cardiovascular mortality
- mortality vs placebo (in words) ([2]; monitored for over 10 years): no significant difference in mortality
